Where two headings read alike, the source gives them in different places.
Target: T1, Plasmodium falciparum hypoxanthine-guanine-xanthine phosphoribosyltransferase (PfHGXPRT) (Plasmodium falciparum, UniProt Q8IJS1)
T1 construct: gene PF3D7_1012400; recombinant, N-terminal His6 tag (pET28-a), expressed in E. coli BL21 (DE3)
Assay: microscale thermophoresis (MST) with labelled His-tagged protein; UV-Vis spectral change
Type: binding

T1 sequence (Q8IJS1 entry or part of it): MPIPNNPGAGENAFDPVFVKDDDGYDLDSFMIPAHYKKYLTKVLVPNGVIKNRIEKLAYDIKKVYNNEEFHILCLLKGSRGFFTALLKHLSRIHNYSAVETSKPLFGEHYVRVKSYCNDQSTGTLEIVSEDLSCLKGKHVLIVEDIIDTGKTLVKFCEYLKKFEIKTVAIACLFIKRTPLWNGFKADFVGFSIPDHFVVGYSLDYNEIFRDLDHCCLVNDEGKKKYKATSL

Row | Compound | Kd | Kd (read-out: Kd)
1 | CC(=O)O[C@H]1CC[C@]2(C)[C@H]3CC=C4[C@@H]5[C@@H](C)[C@H](C)CC[C@]5(C(=O)O)CC[C@@]4(C)[C@]3(C)CC[C@H]2C1(C)C [UAA, ursolic acid acetate] | 2840 nM | 
2 | iso-mukaadial acetate [IMA] |  | 83.3 nM

— paper PMC6995562, “Evaluating Iso-Mukaadial Acetate and Ursolic Acid Acetate as Plasmodium falciparum Hypoxanthine-Guanine-Xanthine Phosphoribosyltransferase Inhibitors” (Biomolecules, 2019)
